How the values were obtained:
[1] = test system: 786-O EV^GFP (VHL-deficient) cells; assay: Western blot for Caspase 9 and Bcl-xL; format: cell-based, human
Procedure: (§1) Figure 2 Homoharringtonine (HHT) preferentially induces cell death in VHL-deficient 786-O cells A. 786-O cells with VHL mutation (green) or with VHL-reconstituted (red) were treated with different concentrations of HHT (0, 25, 50, or 100 nM) for 0, 6, 12, 24, 36, or 48 hours, and cell death was measured by trypan blue exclusion assay (n = 3 for each concentration and time point; *p < 0.05, **p < 0.001, ***p < 0.0001 between 786-O EV cells and 786-O with VHL reconstituted at the same concentration and time point). B. […] Blots were probed for Bcl-xL and Caspase 9, and α-Tubulin as loading control. Arrow indicates the cleaved Caspase 9 product.

[2] = test system: 786-O VHL^mCh (VHL-reconstituted) cells; assay: Western blot for Caspase 9 and Bcl-xL; format: cell-based, human; details: 24 hours
Procedure: as §1

[3] = Toxicity in tumorgraft-bearing mice (mouse weight, signs); format: in vivo; details: 0.7 mg/kg by gavage twice daily, XP26 and XP144 cohorts
Source text: C. and D. Average weight of XP26 and XP144 cohort mice in grams (g) taken at the indicated days prior to and over the course of the indicated drug treatment. Day 0 represents the first day of treatment.
(§2) Tumorgrafts were generated and propagated as described previously, with tumor samples implanted subcutaneously into the flank of the mouse for drug trials. Briefly, 4- to 8-week-old NOD/SCID mice were anesthetized with isoflurane and implanted subcutaneously with 64 mm^3 tumor fragments (cohorts 2-20). Once tumors reached an average of at least ~250 mm^3, drug treatment was begun. The mice were treated with vehicle, 0.7 mg/kg homoharringtonine (HHT) via gavage twice daily, or 0.5 mg/kg rapamycin given by IP injection once every 48 hours. Tumor size (volume) was measured twice weekly and was obtained by multiplying tumor length, width, and depth using calipers. To assess toxicity, mouse weight was monitored once weekly.

[4] = test system: VHL-mutant patient-derived ccRCC tumorgraft lines; assay: ccRCC tumorgraft model, six VHL-mutant tumorgraft lines; format: in vivo, NOD/SCID mice
Procedure: (§3) We selected 6 independently-derived ccRCC tumorgraft lines that were confirmed to have VHL mutation. The mice (3-5 mice per tumorgraft line) were treated with either HHT (0.7 mg/kg), vehicle (as a negative control), or rapamycin (0.5 mg/kg; as a positive control). In total, 65 tumorgraft bearing mice were evaluated for these experiments in time courses lasting ~28 days, with tumor growth measured every 3 or 4 days.
(§4) Figure 3 HHT inhibits tumor growth in a ccRCC tumorgraft model A-F, Tumorgraft lines were treated with vehicle control, HHT (0.7 mg/kg), rapamycin (0.5 mg/kg), (or the combination, where indicated) and tumor growth was measured on the indicated days. Day 0 represents the first day of treatment.
as §2
Sections from tumors were stained with hematoxylin and eosin (H&E) as described previously.

[5] = cited from earlier work
XP26 tumorgraft line = assay: ccRCC tumorgraft model, line XP26; format: in vivo, NOD/SCID mice; details: 0.7 mg/kg by gavage twice daily
Procedure: as §3, §4
as §2, with “The mice were treated with vehicle, 0.7 mg/kg homoharringtonine (HHT) via gavage twice daily, or 0.5 mg/kg rapamycin given by IP injection once every 48 hours.” left out

advanced ccRCC = test system: advanced ccRCC; design: method as in PMID 9157078; details: 14 patients with advanced ccRCC, 1996; cited from earlier work
[6] = test system: VHL-deficient 786-O cells; assay: Cell death by trypan blue exclusion assay; format: cell-based, human; details: 36 hours
Procedure: (§5) Figure 2 Homoharringtonine (HHT) preferentially induces cell death in VHL-deficient 786-O cells A. 786-O cells with VHL mutation (green) or with VHL-reconstituted (red) were treated with different concentrations of HHT (0, 25, 50, or 100 nM) for 0, 6, 12, 24, 36, or 48 hours, and cell death was measured by trypan blue exclusion assay (n = 3 for each concentration and time point; *p < 0.05, **p < 0.001, ***p < 0.0001 between 786-O EV cells and 786-O with VHL reconstituted at the same concentration and time point). B. Western blot analysis of 786-O EV^GFP (EV) or VHL^mCh (VHL) cells treated with 100 nM HHT for 0, 3, 6, 12, or 24 hours. Blots were probed for Bcl-xL and Caspase 9, and α-Tubulin as loading control. Arrow indicates the cleaved Caspase 9 product.

[7] = test system: VHL-reconstituted 786-O cells; assay: Cell death by trypan blue exclusion assay; format: cell-based, human; details: 36 hours
Procedure: as §5

With `COC(=O)C[C@](O)(CCCC(C)(C)O)C(=O)O[C@@H]1C(OC)=C[C@]23CCCN2CCc2cc4c(cc2[C@H]13)OCO4` [HHT, homoharringtonine] the “caspase 9 cleavage” value ([1]; 50 nM and 100 nM, within 12 hours) was “observed”, the Bcl-xL expression ([1]; 24 hours) was “not upregulated” and the Bcl-xL expression [2] was “upregulated”. The “body weight of treated mice” value [3] was “maintained similar body weight compared to controls”, the “tumorgraft lines with tumor growth inhibited” value ([4]; 0.7 mg/kg by gavage twice daily, lines responding / lines tested) was 2/6 and the “synergistic effects with rapamycin in the tumorgrafts” value ([4]; HHT 0.7 mg/kg plus rapamycin 0.5 mg/kg) was “did not observe synergistic effects”. The “histology of harvested tumors (H&E)” value ([4]; XP26 and XP144 cohorts) was “induced tumor cell necrosis”, the half-life in humans ([5]; dosed subcutaneously) was 7 h and the “plasma concentration reached in patients” value ([5]; treatment of CML) was ~ 50 nM. For the same compound, the “tumor weight smaller than vehicle-treated” value (XP26 tumorgraft line) was 56%, the “tumor growth inhibition (tumor volume) vs vehicle” value (XP26 tumorgraft line; ~28 days) was 63.7% and the “outcome of phase II trial” value (advanced ccRCC) was “halted due to toxicity”. For the same compound, the VHL-deficient cells killed ([6]; 50 nM) was 30-40%, the “dead VHL-deficient cells” value ([6]; 100 nM) was 50-60% and the VHL-reconstituted cells dead ([7]; 50 nM) was < 10%. For the same compound, the “dead VHL-reconstituted cells” value ([7]; 100 nM) was “less than 25%”.

Source: paper PMC4627284, “High-throughput simultaneous screen and counterscreen identifies homoharringtonine as synthetic lethal with von Hippel-Lindau loss in renal cell carcinoma” (Oncotarget, 2015)
